Data reported in patent publication US20130203146A1, “MICROFABRICATED SCAFFOLD STRUCTURES” (priority 2010, published 2013).

Test system: HUVECs
Test: Cytotoxicity of [Rull(bpy)3]^2+ on HUVECs (MTT assay)
Assay type: cell-based, human
Method: FIG. 3 is a graph illustrative of the effect of [Rull(bpy)3]^2+ concentration on the viability of HUVECs. Absorbance of the MTT assay was determined at 490 nm.
HUVECs (CRL-2873™) thawed from cryopreservation was cultured in Endogro Supplement medium kit (Millipore) supplemented with 1% penicillin streptomycin. Cells were recovered from tissue culture dishes/T25 flask with 0.05% trypsin-ethylenediaminetetraacetic acid (EDTA) in PBS. The cells were routinely passaged at 1/5 confluency. All cells were incubated at 37° C. in a humidified, 5% CO2 atmosphere.

[Cl-].[Cl-].[Ru+2].c1ccc(-c2ccccn2)nc1.c1ccc(-c2ccccn2)nc1.c1ccc(-c2ccccn2)nc1 [[Rull(bpy)3]^2+, ruthenium II trisbipyridyl chloride [RuII(bpy)3]^2+]
safe range of [Rull(bpy)3]^2+ concentrations (HUVECs, MTT assay, absorbance at 490 nm): 0.5 to 3.5 mM | viability of HUVECs (higher [Rull(bpy)3]^2+ concentration than the safe range, lower absorbance at 490 nm): reduce the viability of HUVECs
